The source of these data is paper PMC4059180 (Journal of medicinal chemistry, 2013).

Structures are written as SMILES.

The test system of series [1] is mFAP transfected HEK293 cells. In words: CellTiter-Blue cell viability assay. Type of series: cell-based. Particulars: 48 h. (In general: Resazurin is reduced to fluorescent resorufin, in cell work by metabolically active cells.)
For another series, the target named is T1, FAP (Homo sapiens, UniProt Q12884).
T1 sequence (Q12884 1-760): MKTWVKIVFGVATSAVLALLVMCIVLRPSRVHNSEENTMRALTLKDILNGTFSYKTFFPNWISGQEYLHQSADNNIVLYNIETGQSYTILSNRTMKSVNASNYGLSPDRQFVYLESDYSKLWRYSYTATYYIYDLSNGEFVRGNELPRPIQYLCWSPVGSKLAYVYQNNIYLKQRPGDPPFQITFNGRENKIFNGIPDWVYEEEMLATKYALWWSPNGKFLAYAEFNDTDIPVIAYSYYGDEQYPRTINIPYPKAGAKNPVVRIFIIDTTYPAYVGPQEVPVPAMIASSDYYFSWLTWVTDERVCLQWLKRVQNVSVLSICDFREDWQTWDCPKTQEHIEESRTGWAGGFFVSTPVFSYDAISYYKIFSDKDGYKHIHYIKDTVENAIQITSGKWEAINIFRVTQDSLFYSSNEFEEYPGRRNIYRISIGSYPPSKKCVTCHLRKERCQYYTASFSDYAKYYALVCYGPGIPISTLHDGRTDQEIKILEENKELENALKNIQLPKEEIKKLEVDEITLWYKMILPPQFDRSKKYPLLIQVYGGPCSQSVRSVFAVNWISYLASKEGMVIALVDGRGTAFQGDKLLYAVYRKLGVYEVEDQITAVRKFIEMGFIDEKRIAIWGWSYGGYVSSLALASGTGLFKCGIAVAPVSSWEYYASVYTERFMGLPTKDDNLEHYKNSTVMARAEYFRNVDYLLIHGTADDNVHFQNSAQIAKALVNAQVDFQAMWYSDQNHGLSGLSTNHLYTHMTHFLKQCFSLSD
In words: Enzyme kinetics. Particulars: highest concentrations tested. Type of series: biochemical.

For the next series, the system named is tumor growth. Particulars: mice inoculated with those same cells; cited from earlier work.
The next series deals with several tumor cell lines. Particulars: cited from earlier work.
In another series the test system is cells. Particulars: cells in vitro and in vivo; cited from earlier work.

As to `C[C@@H](NC(=O)c1ccncc1)C(=O)N1CCC[C@H]1B(O)O` [Compound 6, N-(Pyridine-4-carbonyl)-(R)-alaninyl-(R)-boroproline], in series [1], the cytotoxicity result is listed as “No cytotoxicity was observed”.

On to `CC(C)[C@H](NC(=O)c1cccnc1)C(=O)N1CCC[C@H]1B(O)O` [Compound 22, N-(Pyridine-3-carbonyl)-(R)-valinyl-(R)-boroproline], for which the “inhibition of FAP in kinetic analysis” value against FAP is given as “does not inhibit FAP at the highest concentrations tested”.

For `CC(C)[C@H](N)C(=O)N1CCC[C@H]1B(O)O` [Compound 20, (S)-Valinyl-(R)-boroproline], the “tumor growth in vivo” value with tumor growth was “attenuating tumor growth in vivo”. For the same compound, the cytotoxicity result in the series on several tumor cell lines is listed as “lack cytotoxicity against several tumor cell lines”.

With `CC(C)C[C@H](NC(=O)[C@H](Cc1ccccc1)NC(=O)c1cnccn1)B(O)O` [bortezomib, Bortezomib], the cytotoxicity entry in the series on cells was “cytotoxic”.
